US20260193242A1, “USEFUL COMPOUNDS FOR MODULATING INFLAMMATION” (FLAGSHIP PIONEERING INNOVATIONS VI, LLC, priority 2022, published 2026)

What was measured:
[1] = test system: TNBS-induced colitis, Balb/c mice; assay: TNBS-induced model of colitis in mice, dosing from day -1, prophylactic mode; assay type: in vivo
Method: Female Balb/c mice aged 8 weeks and weighing 18-20 g were housed under standard conditions. The mice were divided into groups with 8-10 mice in each group by body weight. Mice in sham group received intracolonic injection with 50% ethanol (0.1 mL) at day 0, whereas mice in other Trinitrobenzene sulfonic acid (TNBS) colitis model groups received intracolonic injection of 2% TNBS solution in ethanol (0.1 mL) at day 0. The reference compound Mesalazine (Selleck) and test articles described here were dosed from day-1 to day 6. Day 6 was the endpoint, and samples were immediately harvested for the last endpoint. Mesalazine was dissolved in distilled water (pH 7.0) and test articles were dissolved in Phosal 50 PG for delivery by oral gavage.
As noted, dosing of the compounds described herein, as well as the positive control mesalamine, began one day before TNBS administration. Animals in this scenario have not yet developed colitis symptoms before administration of test articles. For this reason, we refer to these conditions as “prophylactic mode”.
Body weight and Disease Activity Index (DAI) scores were recorded daily to assess the colitis. DAI score was the sum of the weight loss score, stool score and bleeding sub-scores. A blinded scoring system was employed to assess the colitis. The DAI scorer blinded to the group information and animal ID was responsible for the stool consistency and bleeding evaluations. If there was no blood visible with naked eyes, the Fecal occult blood (FOB) test was performed with a fecal occult blood test strip (the improved pyramidon method).
Colon tissue morphology, damage and healing were assessed by histopathology. The colons were harvested, mesentery and adipose tissue were carefully removed, and internal contents were removed by rinsing with cold PBS. The colons were Swiss-rolled and fixed in neutralized paraformaldehyde followed by H&E staining. Clinical pathologists reviewed the H&E staining and scored blinded with animal ID. The pathological scoring standards were: crypt architecture (normal, 0-severe crypt distortion with loss of entire crypts, 3), degree of inflammatory cell infiltration (normal, 0-dense inflammatory infiltrate, 3), muscle thickening (base of crypt sits on the muscularis mucosae, 0-marked muscle thickening present, 3), goblet cell depletion (absent, 0-present, 1) and crypt abscess (absent, 0-present, 1).
The plasma was collected at Day-1 for PK and cytokine (IL-1ß and IL-6) analysis by mandibular venipuncture.
The data was compared by ANOVA with post-hoc Dunnett's multiple comparisons test using Graph Pad Prism 7.0 software (San Diego, CA, USA). P-value<0.05 was considered as statistically significant difference. For pairwise comparison of histology scores and cytokines, unpaired t-test was used to calculate statistical significance. Data was expressed as mean±standard error of mean. In figures, statistical significance is denoted by asterisks: *p<0.05 **p<0.01 ***p<0.005, ****p<0.0001.

LPS-stimulated MoDC = assay: TLR4 stimulated pro-inflammatory cytokine release in primary human monocyte-derived dendritic cells; assay type: cell-based; conditions: healthy human donors D14 and D15, dose response
From the text: Monocyte derived DC (MoDC) were differentiated from healthy human donor derived CD14+ monocytes. Commercially available freshly prepared Leukopaks were obtained from healthy blood donor and kept refrigerated on ice before spin centrifuged and the pelleted cells are rinsed and resuspended with MACS buffer (Miltenyi Biotec). Next, CD14+ monocytes were purified using MultiMACS™ Cell24 Separator-Plus instrumentation and reagents according to the manufacturer (Miltenyi Biotec) instructions. The resulting purified CD14+ cell fraction was washed, enumerated, and subsequently cryopreserved for later use. At the experiment first day cryopreserved CD14+ cells were thawed, rinsed with culture media, and then resuspended in culture media principally composed of RPMI (Invitrogen) supplemented with 10% v/v heat inactivated FBS. For generation of MoDC, these CD14+ cells were enumerated and seeded into 75 cm^2 tissue culture flasks in 30 mL of culture media supplemented with GM-CSF (40-100 ng/ml) and IL-4 (25 ng/ml). Every other day, half of the culture media was replaced with fresh media (containing the same cytokine supplementation) and after 6-7 days of culture, fully differentiated and mature MoDC were obtained as confirmed by conventional Immuno-phenotype markers (levels of expression or absence of surface CD80, CD83, CD86, CD209, HLA-DR, CD14 & CD64) that were verified by flow-cytometry. Fully differentiated (mature) MoDCs, were seeded into 96 flat-well plates and incubated with various concentrations of the compounds described herein, or with control solution (DMSO), or with the pharmacologic inhibitors Cyclosporin-A (CsA) or BAY 61-3606 (which is a known inhibitor of Syk kinase) for 6 hours. Next, the cells were stimulated with Toll-like receptor agonists R848 (TLR7/8) or LPS (TLR4), and further incubated for 18-20 hours. After incubation concluded, culture supernatants were collected, and the levels of inflammatory cytokines and chemokines were measured in a triplicate setting for each condition by Luminex® multiplex assay.

[2] = 1, 3 and 10 mg/kg PO, QD, vs Vehicle group

With `CN1[C@@H](C(=O)O)CC[C@H]1[C@@H]1CSC(c2ccccc2O)=N1` [Compound I-4, (2R,5S)-5-((R)-2-(2-hydroxyphenyl)-4,5-dihydrothiazol-4-yl)-1-methylpyrrolidine-2-carboxylic acid] as the compound, how does the “body weight (% initial weight) recovery” value ([1]; 30 mg/kg, PO, QD, day -1 to day 6) read?
The value was “faster recovery rate”.

And the total histology scores ([1]; 1, 3 and 10 mg/kg PO, QD)?
Its total histology scores is “lower”.

And the “Disease Activity Index (DAI) scores” value ([1]; 1, 3 and 10 mg/kg PO, QD, day -1 to day 6)?
Its value is “dose-dependent improvement”.

And the IL-1ß in plasma [1, 2]?
The IL-1ß in plasma was “decreased”.

What about the IL-6 in plasma [1, 2] of the same compound?
Its IL-6 in plasma is “decreased”.

What about the “pathological score (crypt structure failure, inflammatory cell infiltration)” value ([1]; 1, 3 and 10 mg/kg PO, QD, H&E colon) of the same compound?
Its value is “lower”.

What about the ED50 ([1]; Mus musculus, 144 h, PO, QD, day -1 to day 6, read-out: dose for half maximal effect or ED50 (DAI score at Day 6)) of the same compound?
The ED50 was 15 mg/kg.

What about the “colon recovery and mucosal healing” value ([1]; in a dose-dependent manner, prophylactic mode) of the same compound?
Its value is “promoted the colon recovery and mucosal healing”.

What about the IL-6 level (LPS-stimulated MoDC) of the same compound?
The IL-6 level was “statistically significant decrease”.

What about the IL-12p70 level (LPS-stimulated MoDC) of the same compound?
Its IL-12p70 level is “statistically significant decrease”.

What about the IL-23 level (LPS-stimulated MoDC) of the same compound?
Its IL-23 level is “statistically significant decrease”.

And the TNFα level (LPS-stimulated MoDC)?
The TNFα level was “statistically significant decrease”.
